Source: the NIST ThermoML archive (doi:10.1007/s10765-005-8101-x)
± gives the expanded uncertainty stated by the source. Blank lines part the entries; values can stand above or below the molecule they belong to.

Experiments:
[1] = 298.15 K; 101.33 kPa; Liquid
[2] = xn = mol fraction of the nth substance listed; conditions: 298.15 K, 101 kPa, Liquid

- mass density [1]: 806.14 ± 0.59 kg/m3
- speed of sound [1]: 1240.8 ± 2.9 m/s
SMILES: CCCCO [butan-1-ol]

- mass density ([2]; x2 = 0.0596): 804.62 ± 0.95 kg/m3
- speed of sound ([2]; x2 = 0.0596): 1235.6 ± 5.5 m/s
- mass density ([2]; x2 = 0.1039): 803.68 ± 0.95 kg/m3
- speed of sound ([2]; x2 = 0.1039): 1231.8 ± 5.5 m/s
- mass density ([2]; x2 = 0.2093): 801.62 ± 0.96 kg/m3
- speed of sound ([2]; x2 = 0.2093): 1223.2 ± 5.4 m/s
- mass density ([2]; x2 = 0.3024): 799.57 ± 0.96 kg/m3
- speed of sound ([2]; x2 = 0.3024): 1214.8 ± 5.4 m/s
- mass density ([2]; x2 = 0.3977): 797.49 ± 0.97 kg/m3
- speed of sound ([2]; x2 = 0.3977): 1206.1 ± 5.4 m/s
- mass density ([2]; x2 = 0.5033): 794.92 ± 0.98 kg/m3
- speed of sound ([2]; x2 = 0.5033): 1195.9 ± 5.4 m/s
- mass density ([2]; x2 = 0.599): 792.68 ± 0.98 kg/m3
- speed of sound ([2]; x2 = 0.599): 1186.5 ± 5.3 m/s
- mass density ([2]; x2 = 0.6946): 790.21 ± 0.99 kg/m3
- speed of sound ([2]; x2 = 0.6946): 1176.4 ± 5.3 m/s
- mass density ([2]; x2 = 0.8062): 787.19 ± 1 kg/m3
- speed of sound ([2]; x2 = 0.8062): 1164.1 ± 5.3 m/s
- mass density ([2]; x2 = 0.8938): 784.58 ± 1 kg/m3
- speed of sound ([2]; x2 = 0.8938): 1153.6 ± 5.2 m/s
SMILES: CCCCO [butan-1-ol] + CC(C)O

- mass density [1]: 815.15 ± 1.2 kg/m3
- speed of sound [1]: 1303.6 ± 5.9 m/s
SMILES: CCCCCCO [hexan-1-ol]

- mass density ([2]; x2 = 0.039): 814.4 ± 1.2 kg/m3
- speed of sound ([2]; x2 = 0.039): 1299.6 ± 5.9 m/s
- mass density ([2]; x2 = 0.1037): 813 ± 1.1 kg/m3
- speed of sound ([2]; x2 = 0.1037): 1292.9 ± 5.9 m/s
- mass density ([2]; x2 = 0.2075): 810.57 ± 1.1 kg/m3
- speed of sound ([2]; x2 = 0.2075): 1281.1 ± 5.8 m/s
- mass density ([2]; x2 = 0.3051): 808.2 ± 1.1 kg/m3
- speed of sound ([2]; x2 = 0.3051): 1269.2 ± 5.7 m/s
- mass density ([2]; x2 = 0.4032): 805.42 ± 1.1 kg/m3
- speed of sound ([2]; x2 = 0.4032): 1255.9 ± 5.7 m/s
- mass density ([2]; x2 = 0.5067): 802.47 ± 1.1 kg/m3
- speed of sound ([2]; x2 = 0.5067): 1241.4 ± 5.6 m/s
- mass density ([2]; x2 = 0.6044): 799.08 ± 1 kg/m3
- speed of sound ([2]; x2 = 0.6044): 1225 ± 5.5 m/s
- mass density ([2]; x2 = 0.7047): 795.43 ± 1 kg/m3
- speed of sound ([2]; x2 = 0.7047): 1207.3 ± 5.4 m/s
- mass density ([2]; x2 = 0.8059): 791.12 ± 1 kg/m3
- speed of sound ([2]; x2 = 0.8059): 1186.8 ± 5.4 m/s
- mass density ([2]; x2 = 0.9081): 786.44 ± 1 kg/m3
- speed of sound ([2]; x2 = 0.9081): 1164.3 ± 5.3 m/s
SMILES: CCCCCCO [hexan-1-ol] + CC(C)O

- mass density [1]: 821.72 ± 2.1 kg/m3
- speed of sound [1]: 1347.9 ± 6.5 m/s
SMILES: CCCCCCCCO [octan-1-ol]

- mass density ([2]; x2 = 0.0862): 819.96 ± 1.4 kg/m3
- speed of sound ([2]; x2 = 0.0862): 1338.7 ± 6.4 m/s
- mass density ([2]; x2 = 0.2078): 817.18 ± 1.4 kg/m3
- speed of sound ([2]; x2 = 0.2078): 1324.2 ± 6.2 m/s
- mass density ([2]; x2 = 0.2977): 814.58 ± 1.3 kg/m3
- speed of sound ([2]; x2 = 0.2977): 1311.6 ± 6.1 m/s
- mass density ([2]; x2 = 0.4059): 811.74 ± 1.2 kg/m3
- speed of sound ([2]; x2 = 0.4059): 1296 ± 6 m/s
- mass density ([2]; x2 = 0.5012): 808.6 ± 1.2 kg/m3
- speed of sound ([2]; x2 = 0.5012): 1279.4 ± 5.9 m/s
- mass density ([2]; x2 = 0.5991): 804.77 ± 1.1 kg/m3
- speed of sound ([2]; x2 = 0.5991): 1259.8 ± 5.7 m/s
- mass density ([2]; x2 = 0.6994): 800.52 ± 1.1 kg/m3
- speed of sound ([2]; x2 = 0.6994): 1237.7 ± 5.6 m/s
- mass density ([2]; x2 = 0.7985): 795.28 ± 1.1 kg/m3
- speed of sound ([2]; x2 = 0.7985): 1211.1 ± 5.5 m/s
- mass density ([2]; x2 = 0.8993): 789.09 ± 1 kg/m3
- speed of sound ([2]; x2 = 0.8993): 1179.3 ± 5.3 m/s
- mass density ([2]; x2 = 0.9453): 785.8 ± 1 kg/m3
- speed of sound ([2]; x2 = 0.9453): 1162.8 ± 5.3 m/s
SMILES: CCCCCCCCO [octan-1-ol] + CC(C)O

- mass density [1]: 800.62 ± 0.6 kg/m3
- speed of sound [1]: 1208.1 ± 2.8 m/s
SMILES: CCCO [propan-1-ol]

- mass density [1]: 781.91 ± 0.62 kg/m3
- speed of sound [1]: 1141.3 ± 2.7 m/s
SMILES: CC(C)O [propan-2-ol]

- mass density ([2]; x1 = 0.1051): 798.37 ± 0.97 kg/m3
- speed of sound ([2]; x1 = 0.1051): 1201 ± 5.4 m/s
- mass density ([2]; x1 = 0.195): 796.76 ± 0.97 kg/m3
- speed of sound ([2]; x1 = 0.195): 1195.4 ± 5.3 m/s
- mass density ([2]; x1 = 0.3049): 794.67 ± 0.98 kg/m3
- speed of sound ([2]; x1 = 0.3049): 1187.9 ± 5.3 m/s
- mass density ([2]; x1 = 0.4062): 792.8 ± 0.98 kg/m3
- speed of sound ([2]; x1 = 0.4062): 1181.3 ± 5.3 m/s
- mass density ([2]; x1 = 0.4941): 791.17 ± 0.99 kg/m3
- speed of sound ([2]; x1 = 0.4941): 1175.4 ± 5.3 m/s
- mass density ([2]; x1 = 0.6029): 789.12 ± 0.99 kg/m3
- speed of sound ([2]; x1 = 0.6029): 1168 ± 5.3 m/s
- mass density ([2]; x1 = 0.7067): 787.16 ± 1 kg/m3
- speed of sound ([2]; x1 = 0.7067): 1161 ± 5.2 m/s
- mass density ([2]; x1 = 0.8063): 785.31 ± 1 kg/m3
- speed of sound ([2]; x1 = 0.8063): 1154.2 ± 5.2 m/s
- mass density ([2]; x1 = 0.91): 783.37 ± 1 kg/m3
- speed of sound ([2]; x1 = 0.91): 1147.5 ± 5.2 m/s
- mass density ([2]; x1 = 0.9515): 782.54 ± 1 kg/m3
- speed of sound ([2]; x1 = 0.9515): 1144.5 ± 5.2 m/s
SMILES: CC(C)O [propan-2-ol] + CCCO
